These results are taken from patent publication US8759339B2, “Pyrrolo[2,1-c][1,4]naphthodiazepine linked piperazine compounds and a process for the preparation thereof” (Council of Scientific & Industrial Research, priority 2011, dated 2014).

For orientation: IC50 means the concentration at which inhibition is half-maximal.

A short description of series [1]: In vitro anticancer activity, MTT assay. The series is classed as cell-based. To be noted: kidney cancer cell line, MTT, 48 h continuous drug exposure. The method, then: (§1) In vitro biological activity studies were carried out at the pharmacology division, IICT, Hyderabad. The compounds were evaluated for in vitro anticancer activity against eight tumour cell lines derived from […] cancer types (breast, lung, liver, skeletal, kidney, prostrate, small intestine) as shown in Table 2. For each compound, dose response curves for each cell line were measured at a minimum of five concentrations at 10 fold dilutions. A protocol of 48 h continuous drug exposure was used and a MTT assay was used to estimate cell viability or growth. The concentration causing 50% inhibition (IC50) compared with the control was calculated. Some of the compounds have been evaluated for their in vitro cytotoxicity in eight cell lines from seven human cancer types. The results are expressed as IC50 determined relative to that of untreated control cells (Table-2).

Series [2] concerns L-6 skeletal cancer cell line. The series is described as follows: In vitro anticancer activity, MTT assay. The series is classed as cell-based. The settings on record: result in words. As to the method:
as §1
In general terms: Tetrazolium dyes change colour on reduction, which living cells bring about.

The subject of the next series is L-6. The series is described as follows: In vitro anticancer activity, MTT assay. It is filed as cell-based. The settings on record: skeletal cancer cell line; MTT, 48 h continuous drug exposure. The method, then: as §1
Series [3] relates to COS-1 kidney cancer cell line. The series is described as follows: In vitro anticancer activity, MTT assay. It is filed as cell-based. To be noted: for in-vitro cytotoxicity in kidney cancer cell line (COS-1): result in words. As to the method:
as §1

Series [4] deals with IEC-6 small intestine cell line. The series is described as follows: In vitro anticancer activity, MTT assay. The series is classed as cell-based. To be noted: for in-vitro cytotoxicity in small intestine cancer cell line (IEC-6): result in words. As to the method: as §1
The subject of series [5] is HEPG2 liver cancer cell line. Nature of the series: In vitro anticancer activity, MTT assay. It is filed as cell-based, human. The settings on record: for in-vitro cytotoxicity in liver cancer cell line (HEPG2): result in words. The method, then: as §1
Series [6] deals with PC-3 prostrate cancer cell line. The series is described as follows: In vitro anticancer activity, MTT assay. It is filed as cell-based, human. The settings on record: for IC50: prostrate cancer cell line, MTT, 48 h continuous drug exposure; for in-vitro cytotoxicity in prostrate cancer cell line (PC-3): result in words. The method, then: as §1
Series [7] has as its system A549 lung cancer cell line. The series is described as follows: In vitro anticancer activity, MTT assay. To be noted: for in-vitro cytotoxicity in lung cancer cell line (A549): result in words. It is filed as cell-based, human. The method, then: as §1
Series [8] concerns MCF7 breast cancer cell line. Nature of the series: In vitro anticancer activity, MTT assay. The settings on record: for IC50: breast cancer cell line, MTT, 48 h continuous drug exposure; for in-vitro cytotoxicity in breast cancer cell line (MCF-7): result in words. The series is classed as cell-based, human. The method, then: as §1
In series [9] the test system is NCIH460 large cell lung cancer cell line. Nature of the series: In vitro anticancer activity, MTT assay. The series is classed as cell-based, human. To be noted: for IC50: large cell lung cancer cell line, MTT, 48 h continuous drug exposure; for in-vitro cytotoxicity in large cell lung cancer cell line (NCIH460): result in words. As to the method: as §1
The subject of another series is calf thymus DNA (CT-DNA). The series is described as follows: Thermal denaturation studies with duplex-form calf thymus DNA. The series is classed as binding. To be noted: [PND]/[DNA] molar ratio 1:5, CT-DNA 100 μM, ligand 20 μM, aqueous sodium phosphate buffer pH 7; for ΔTm after incubation at 37° C. for 0 hr: 0 hr at 37° C.; for ΔTm after incubation at 37° C. for 18 hrs: 18 hrs at 37° C. The method, then:
Compounds have been subjected to thermal denaturation studies with duplex-form calf thymus DNA (CT-DNA) using an modification of a reported procedure (Newman, M. S. Carcinog-compr. Surv. 1976, 1, 203; (b) Hecht, S. S.; Loy, M.; Hoffman, Carcinog-compr. Surv. 1976, 1, 325). Working solutions in aqueous buffer (10 mM NaH2PO4/Na2HPO4, 1 mM Na2EDTA, pH 7.00+0.01) containing CT-DNA (100 μm in phosphate) and the PND (pyrrolo naphtha diazepine) (20 μm) have been prepared by addition of concentrated PND (pyrrolo naphtha diazepine) solutions in DMSO to obtain a fixed [PND]/[DNA] molar ratio of 1:5. The DNA-PND (pyrrolo naphtha diazepine) solutions have been incubated at 37° C. for 0 and 18 h prior to analysis. Samples have been monitored at 260 nm using a Beckman DU-800 spectrophotometer fitted with high performance temperature controller, and heated at 1° C. min in the 40-110° C. range. DNA helix→coil transition temperatures (Tm) have been obtained from the maxima in the d(A260)/dT derivative plots. Drug-induced alterations in DNA melting behavior are given by: ΔTm=Tm(DNA+PND)−Tm(DNA alone), where the Tm value for the PND-free CT-DNA is 69.1±0.01.
The DNA binding activity for these novel substituted piperazine linked pyrrolo naphtho diazepine hybrids has been examined by thermal denaturation studies using calf thymus (CT) DNA. […] The data for some of the compounds are included in Table 1 for comparison.

Setting [10] is: small intestine cell line, MTT, 48 h continuous drug exposure, read-out: IC50 IEC-6.
The mark [11] stands for this setting: liver cancer cell line, MTT, 48 h continuous drug exposure, read-out: IC50 HEPG2.
The mark [12] stands for this setting: lung cancer cell line, MTT, 48 h continuous drug exposure, read-out: IC50 A549.

Like-named read-outs stand apart in the source and are kept apart here.

Consider “9-Methoxy-8-(2-chloroethoxy)-(13aS)-1,2,3,13a-tetrahydro-5H-pyrrolo[2,1-c][1,4]naphthodiazepine-5-one [2a]”, for which the IC50 in series [1] (read-out: IC50 COS-1) is 910 nM; in the series with L-6 it was 2 nM; in series [4] (setting [10]) it was 10 nM; in series [5] (setting [11]), 20 nM; in [6] it was 20 nM; in series [7] (setting [12]), 110 nM. Further, the IC50 came to 2 nM in series [8] and 20 nM in series [9]. Besides, in [2], the “in-vitro cytotoxicity in skeletal cancer cell line (L-6)” value (shortened to “in-vitro cytotoxicity … (L-6)”) is reported as “exhibiting in-vitro cytotoxicity”. In series [3], the “in-vitro cytotoxicity in kidney cancer cell line (COS-1)” value (“in-vitro cytotoxicity … (COS-1)” for short) is “exhibiting in-vitro cytotoxicity”. Also, the “in-vitro cytotoxicity in small intestine cancer cell line (IEC-6)” value (“in-vitro cytotoxicity … (IEC-6)” below) in series [4] was “exhibiting in-vitro cytotoxicity”. The “in-vitro cytotoxicity in liver cancer cell line (HEPG2)” value (“in-vitro cytotoxicity … (HEPG2)” below) in [5] is reported as “exhibiting in-vitro cytotoxicity”. Further, in series [6], the “in-vitro cytotoxicity in prostrate cancer cell line (PC-3)” value (from here on “in-vitro cytotoxicity … (PC-3)”) was “exhibiting in-vitro cytotoxicity”. The “in-vitro cytotoxicity in lung cancer cell line (A549)” value (from here on “in-vitro cytotoxicity … (A549)”) in series [7] is listed as “exhibiting in-vitro cytotoxicity”. Moreover, in series [8], the “in-vitro cytotoxicity in breast cancer cell line (MCF-7)” value (“in-vitro cytotoxicity … (MCF-7)” for short) is “exhibiting in-vitro cytotoxicity”. Besides, the “in-vitro cytotoxicity in large cell lung cancer cell line (NCIH460)” value (“in-vitro cytotoxicity … (NCIH460)” below) in series [9] is recorded as “exhibiting in-vitro cytotoxicity”. Further, in the series with calf thymus DNA (CT-DNA), the “ΔTm after incubation at 37° C. for 0 hr” value was determined as 7.1 °C. In addition, the “ΔTm after incubation at 37° C. for 18 hrs” value (from here on “ΔTm … for 18 hrs”) in the series on calf thymus DNA (CT-DNA) is 9.5 °C.

With “8-Methoxy-9-(2-chloroethoxy)-(13aS)-1,2,3,13a-tetrahydro-5H-pyrrolo[2,1-c][1,4]naphthodiazepine-5-one [1a]”, the IC50 is 3060 nM in series [1] (read-out: IC50 COS-1); 1080 nM in the series with L-6; 20 nM in series [4] (setting [10]); 520 nM in [5] (setting [11]); 390 nM in series [6]; 20 nM in series [7] (setting [12]). Moreover, the figures for the IC50 in series [8] and in [9] were 50 nM and 300 nM, respectively. The “in-vitro cytotoxicity … (L-6)” value in series [2] was “exhibiting in-vitro cytotoxicity”. The “in-vitro cytotoxicity … (COS-1)” value in [3] is recorded as “exhibiting in-vitro cytotoxicity”. Moreover, the “in-vitro cytotoxicity … (IEC-6)” value in series [4] is given as “exhibiting in-vitro cytotoxicity”. The “in-vitro cytotoxicity … (HEPG2)” value in series [5] is on record as “exhibiting in-vitro cytotoxicity”. Further, the “in-vitro cytotoxicity … (PC-3)” value in series [6] is reported as “exhibiting in-vitro cytotoxicity”. The “in-vitro cytotoxicity … (A549)” value in series [7] is listed as “exhibiting in-vitro cytotoxicity”. Also, the “in-vitro cytotoxicity … (MCF-7)” value in series [8] is “exhibiting in-vitro cytotoxicity”. For the same compound, the “in-vitro cytotoxicity … (NCIH460)” value in series [9] is recorded as “exhibiting in-vitro cytotoxicity”. Further, in the series on calf thymus DNA (CT-DNA), the “ΔTm after incubation at 37° C. for 0 hr” value stood at 6.2 °C. The “ΔTm … for 18 hrs” value in the series on calf thymus DNA (CT-DNA) is 7.6 °C.

Consider `COc1cc2cc3c(cc2cc1OCCN1CCN(Cc2ccc4c(c2)OCO4)CC1)N=C[C@@H]1CCCN1C3=O` [7a, 8-Methoxy-9-(2-[4-(1,3-benzodioxol-5-ylmethyl)piperazino]ethoxyl)(13aS)-1,2,3,13a-tetrahydro-5H-pyrrolo[2,1-c][1,4]naphthodiazepin-5-one], for which the IC50 in [1] (read-out: IC50 COS-1) was 2580 nM; in the series with L-6, 770 nM; in [4] (setting [10]), 50 nM; in [5] (setting [11]), 110 nM; in [6], 640 nM; in series [7] (setting [12]), 2210 nM. In addition, the figures for the IC50 in series [8] and in series [9] were 200 nM and 80 nM, respectively. Besides, the “in-vitro cytotoxicity … (L-6)” value in series [2] is given as “exhibiting in-vitro cytotoxicity”. The “in-vitro cytotoxicity … (COS-1)” value in series [3] is recorded as “exhibiting in-vitro cytotoxicity”. For the same compound, the “in-vitro cytotoxicity … (IEC-6)” value in [4] is “exhibiting in-vitro cytotoxicity”. The “in-vitro cytotoxicity … (HEPG2)” value in series [5] is “exhibiting in-vitro cytotoxicity”. The “in-vitro cytotoxicity … (PC-3)” value in [6] is given as “exhibiting in-vitro cytotoxicity”. In addition, the “in-vitro cytotoxicity … (A549)” value in [7] is “exhibiting in-vitro cytotoxicity”. The “in-vitro cytotoxicity … (MCF-7)” value in series [8] is “exhibiting in-vitro cytotoxicity”. Moreover, in [9], the “in-vitro cytotoxicity … (NCIH460)” value is reported as “exhibiting in-vitro cytotoxicity”. Besides, in the series on calf thymus DNA (CT-DNA), the “ΔTm after incubation at 37° C. for 0 hr” value amounted to 4.9 °C. In the series with calf thymus DNA (CT-DNA), the “ΔTm … for 18 hrs” value is 6.5 °C.

With `COc1cc2cc3c(cc2cc1OCCN1CCN(c2ccccc2)CC1)C(=O)N1CCC[C@H]1C=N3` [19a, 9-Methoxy-8-[2-(4-phenylpiperazino)ethoxy]-(3aS)-1,2,3,13a-tetrahydro-5H-pyrrolo[2,1-c][1,4]naphthodiazepin-5-one], the IC50 in [1] (COS-1) was 800 nM; in the series with L-6 it was 260 nM; in [3] (COS-1, range over the listed compounds, exposure period of at least 48 hrs, read-out: IC50 against kidney cancer cell lines), 800 to 4320 nM; in [4] (IEC-6, range over the listed compounds, exposure period of at least 48 hrs, read-out: IC50 against small intestine cancer cell lines), 10 to 5840 nM; in series [4] (IEC-6, small intestine cell line, MTT, 48 h continuous drug exposure, read-out: IC50 IEC-6), 10 nM; in series [5] (Homo sapiens, HepG2, liver cancer cell line, MTT, 48 h continuous drug exposure, read-out: IC50 HEPG2) it was 40 nM. Besides, the IC50 in [5] (Homo sapiens, HepG2, range over the listed compounds, exposure period of at least 48 hrs, read-out: IC50 against liver cancer cell lines) is 20 to 7320 nM; in series [6] (Homo sapiens), 300 nM; in series [7] (Homo sapiens, A549, lung cancer cell line, MTT, 48 h continuous drug exposure, read-out: IC50 A549), 9900 nM; in series [7] (Homo sapiens, A549, range over the listed compounds, exposure period of at least 48 hrs, read-out: IC50 against lung cancer cell lines), 20 to 11900 nM; in series [8] (Homo sapiens, MCF7) it was 180 nM; in [9] (Homo sapiens, NCI-H460) it was 6 nM. The “in-vitro cytotoxicity … (L-6)” value in [2] is “exhibiting in-vitro cytotoxicity”. Moreover, the “in-vitro cytotoxicity … (COS-1)” value in series [3] is “exhibiting in-vitro cytotoxicity”. Besides, the “in-vitro cytotoxicity … (IEC-6)” value in series [4] was “exhibiting in-vitro cytotoxicity”. For the same compound, the “in-vitro cytotoxicity … (HEPG2)” value in series [5] is on record as “exhibiting in-vitro cytotoxicity”. Further, in series [6], the “in-vitro cytotoxicity … (PC-3)” value is recorded as “exhibiting in-vitro cytotoxicity”. Also, the “in-vitro cytotoxicity … (A549)” value in series [7] is reported as “exhibiting in-vitro cytotoxicity”. Besides, the “in-vitro cytotoxicity … (MCF-7)” value in series [8] is listed as “exhibiting in-vitro cytotoxicity”. In series [9], the “in-vitro cytotoxicity … (NCIH460)” value is on record as “exhibiting in-vitro cytotoxicity”. Besides, the “ΔTm after incubation at 37° C. for 0 hr” value with calf thymus DNA (CT-DNA) is 6.5 °C. Besides, in the series with calf thymus DNA (CT-DNA), the “ΔTm … for 18 hrs” value amounted to 7.3 °C.
